Laboratory results reported in patent US10202387B2, “Heterocyclyl linked imidazopyridazine derivatives as PI3KB inhibitors” (Janssen Pharmaceutica NV, priority 2014, dated 2019).

Columns and labels:
PIK3Cγ_h = biological target: T1, PIK3Cγ_h (Homo sapiens, UniProt P48736); experiment: Enzyme binding assay (KINOMEscan); conditions: DiscoveRx
T1 construct: purchased DiscoveRx Corporation, San Diego (KINOMEscan service)
Experimental: (§1) Enzyme Binding Assays (KINOMEscan®)
(§2) Kinase enzyme binding affinities of compounds disclosed herein were determined using the KINOMEscan technology performed by DiscoveRx Corporation, San Diego, Calif., USA (www.kinomescan.com). Table A reports the obtained Kd values (nM), with the Kd being the inhibitor binding constant: […]

PIK3Cδ_h = biological target: T2, PIK3Cδ_h (Homo sapiens, UniProt O00329); experiment: Enzyme binding assay (KINOMEscan); conditions: DiscoveRx
T2 construct: purchased DiscoveRx Corporation, San Diego (KINOMEscan service)
T2 sequence (O00329 1-1044): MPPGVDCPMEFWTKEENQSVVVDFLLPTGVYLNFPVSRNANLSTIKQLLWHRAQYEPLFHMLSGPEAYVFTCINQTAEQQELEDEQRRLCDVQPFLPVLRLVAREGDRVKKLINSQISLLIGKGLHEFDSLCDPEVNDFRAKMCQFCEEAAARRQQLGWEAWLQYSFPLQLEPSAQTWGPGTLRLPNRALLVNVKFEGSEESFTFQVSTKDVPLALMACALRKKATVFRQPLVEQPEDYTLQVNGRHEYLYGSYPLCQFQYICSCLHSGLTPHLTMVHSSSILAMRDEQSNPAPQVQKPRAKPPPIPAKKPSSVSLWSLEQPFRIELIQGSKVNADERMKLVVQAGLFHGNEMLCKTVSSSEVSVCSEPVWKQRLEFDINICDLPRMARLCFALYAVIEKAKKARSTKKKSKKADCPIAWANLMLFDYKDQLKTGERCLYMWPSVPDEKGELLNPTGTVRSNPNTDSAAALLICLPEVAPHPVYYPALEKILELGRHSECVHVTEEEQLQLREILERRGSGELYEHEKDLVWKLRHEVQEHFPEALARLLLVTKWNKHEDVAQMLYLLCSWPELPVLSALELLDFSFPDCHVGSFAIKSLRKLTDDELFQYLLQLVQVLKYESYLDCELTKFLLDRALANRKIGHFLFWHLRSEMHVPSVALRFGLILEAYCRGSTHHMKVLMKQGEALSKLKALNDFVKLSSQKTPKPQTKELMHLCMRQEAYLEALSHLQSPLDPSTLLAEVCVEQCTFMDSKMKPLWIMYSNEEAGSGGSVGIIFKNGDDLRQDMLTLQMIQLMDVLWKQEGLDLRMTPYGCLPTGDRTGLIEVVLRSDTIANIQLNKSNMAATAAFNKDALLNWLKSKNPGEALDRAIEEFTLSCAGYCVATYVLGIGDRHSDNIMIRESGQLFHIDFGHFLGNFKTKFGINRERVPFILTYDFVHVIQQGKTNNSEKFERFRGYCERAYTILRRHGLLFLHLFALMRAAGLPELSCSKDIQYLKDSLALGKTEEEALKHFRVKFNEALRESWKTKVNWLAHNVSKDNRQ
Experimental: as §1, §2

MTOR_h = biological target: T3, MTOR_h (Homo sapiens, UniProt P42345); experiment: Enzyme binding assay (KINOMEscan); conditions: DiscoveRx
T3 construct: purchased DiscoveRx Corporation, San Diego (KINOMEscan service)
Experimental: as §1, §2

PIK3Cβ_h = biological target: T4, PIK3Cβ_h (Homo sapiens, UniProt P42338); experiment: Enzyme binding assay (KINOMEscan); conditions: DiscoveRx
T4 construct: purchased DiscoveRx Corporation, San Diego (KINOMEscan service)
T4 sequence (P42338 whole entry): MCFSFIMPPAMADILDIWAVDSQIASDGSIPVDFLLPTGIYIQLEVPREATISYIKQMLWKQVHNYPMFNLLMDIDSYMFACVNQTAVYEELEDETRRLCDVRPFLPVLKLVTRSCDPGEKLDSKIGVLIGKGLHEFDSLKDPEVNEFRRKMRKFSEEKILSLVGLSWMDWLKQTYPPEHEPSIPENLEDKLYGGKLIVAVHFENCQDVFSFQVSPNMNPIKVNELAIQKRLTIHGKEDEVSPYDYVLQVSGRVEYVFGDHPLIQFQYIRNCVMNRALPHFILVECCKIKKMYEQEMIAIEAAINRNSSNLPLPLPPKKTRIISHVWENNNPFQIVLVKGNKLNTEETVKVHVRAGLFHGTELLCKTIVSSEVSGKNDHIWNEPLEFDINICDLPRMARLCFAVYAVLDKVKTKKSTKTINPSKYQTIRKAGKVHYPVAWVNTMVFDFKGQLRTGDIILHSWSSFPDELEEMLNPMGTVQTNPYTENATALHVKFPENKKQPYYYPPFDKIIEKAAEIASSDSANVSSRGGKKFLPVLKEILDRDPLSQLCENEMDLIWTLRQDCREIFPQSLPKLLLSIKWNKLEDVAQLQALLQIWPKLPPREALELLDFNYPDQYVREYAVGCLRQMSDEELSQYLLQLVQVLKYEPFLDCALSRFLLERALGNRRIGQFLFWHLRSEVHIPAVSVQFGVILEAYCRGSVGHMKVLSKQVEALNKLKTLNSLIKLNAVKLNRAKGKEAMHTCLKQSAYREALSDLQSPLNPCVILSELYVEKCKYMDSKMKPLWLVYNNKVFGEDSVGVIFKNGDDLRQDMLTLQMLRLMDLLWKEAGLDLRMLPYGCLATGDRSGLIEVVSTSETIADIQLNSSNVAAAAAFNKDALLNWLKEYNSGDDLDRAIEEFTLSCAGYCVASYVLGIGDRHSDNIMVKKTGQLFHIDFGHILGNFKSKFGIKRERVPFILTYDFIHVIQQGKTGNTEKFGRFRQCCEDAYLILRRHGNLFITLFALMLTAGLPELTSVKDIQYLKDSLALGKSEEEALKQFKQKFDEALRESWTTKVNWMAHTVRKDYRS
Experimental: as §1, §2

PIK3Cα_h = biological target: T5, PIK3Cα_h (Homo sapiens, UniProt P42336); experiment: Enzyme binding assay (KINOMEscan); conditions: DiscoveRx
T5 construct: purchased DiscoveRx Corporation, San Diego (KINOMEscan service)
T5 sequence (P42336 whole entry): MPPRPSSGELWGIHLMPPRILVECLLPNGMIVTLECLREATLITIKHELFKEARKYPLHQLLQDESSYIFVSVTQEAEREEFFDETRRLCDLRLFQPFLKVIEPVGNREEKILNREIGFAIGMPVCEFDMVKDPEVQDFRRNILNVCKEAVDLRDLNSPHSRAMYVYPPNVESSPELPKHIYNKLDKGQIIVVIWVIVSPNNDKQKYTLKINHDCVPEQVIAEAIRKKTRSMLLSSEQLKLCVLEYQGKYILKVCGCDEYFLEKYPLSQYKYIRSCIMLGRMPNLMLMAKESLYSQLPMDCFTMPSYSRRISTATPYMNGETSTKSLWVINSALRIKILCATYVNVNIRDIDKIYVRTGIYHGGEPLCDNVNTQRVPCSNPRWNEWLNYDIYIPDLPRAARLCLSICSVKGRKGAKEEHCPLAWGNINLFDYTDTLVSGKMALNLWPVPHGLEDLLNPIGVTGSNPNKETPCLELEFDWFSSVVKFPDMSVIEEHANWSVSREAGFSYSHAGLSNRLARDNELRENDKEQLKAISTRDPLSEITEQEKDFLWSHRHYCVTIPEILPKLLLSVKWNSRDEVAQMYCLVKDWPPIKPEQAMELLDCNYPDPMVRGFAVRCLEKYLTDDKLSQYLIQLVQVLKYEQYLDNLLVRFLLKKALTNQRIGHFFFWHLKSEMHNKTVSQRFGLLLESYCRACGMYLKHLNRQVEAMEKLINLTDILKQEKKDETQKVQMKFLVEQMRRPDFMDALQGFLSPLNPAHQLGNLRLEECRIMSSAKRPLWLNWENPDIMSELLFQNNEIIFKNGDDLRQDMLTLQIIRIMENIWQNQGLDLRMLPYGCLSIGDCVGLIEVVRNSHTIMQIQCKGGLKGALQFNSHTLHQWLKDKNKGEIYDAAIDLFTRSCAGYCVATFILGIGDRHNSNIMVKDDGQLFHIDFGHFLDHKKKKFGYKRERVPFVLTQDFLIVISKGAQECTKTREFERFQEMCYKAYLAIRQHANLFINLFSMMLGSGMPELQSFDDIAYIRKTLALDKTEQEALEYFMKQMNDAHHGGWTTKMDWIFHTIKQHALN
Experimental: as §1, §2

[1] = system: Akt phosphorylated at Thr308 in PC-3 cells; experiment: Cellular assay: phosphorylation of Akt (Thr308) in PC-3 cells, MSD ELISA; assay type: cell-based; conditions: Homo sapiens, 1 h, 60 min incubation with compound, read-out: IC50 pAkt_Thr308
Experimental: (§3) Cellular activity of PI3Kβ inhibitors was determined by quantifying the phosphorylation of Akt in PC-3 cells. Akt phosphorylated at Ser473 and Thr308 were measured using an enzyme-linked immunosorbent assay (ELISA; Meso Scale Discovery (MSD). Gaithersburg, Md.) and specific primary antibodies from MSD.
(§4) On day 1, PC3 cells (ATCC […]) were seeded into PerkinElmer MW96 plates at 25.000 cells per well, in 75 μl complete culture medium (DMEM (Dulbecco's Modified Eagle's Medium) high glucose. AQmedia™, D0819, Sigma-Aldrich) containing 10% heat inactivated FCS (Fetal Bovine Serum) and incubated at 37° C., 5% CO2 during 24 hours. On day 2, compound or DMSO (dimethyl sulfoxide) (0.3%) was added and cells were further incubated for 60 min at 37° C., 5% CO2 in a total volume of 100 μl of medium.
(§5) The phosphoprotein assay was executed according to vendor instructions in the Phospho-Akt (Ser473) Assay Whole Cell Lysate Kit (MSD #K15100D-3) and the Phospho-Akt (Thr308) Assay Whole Cell Lysate Kit (MSD #K151DYD-3) using the lysis, blocking and wash buffer provided.
(§6) Briefly, at the end of the cell treatment period, media were removed by aspiration and adherent cells were lysed in 50 μl ice-cold lysis buffer. MSD plates are supplied pre-coated with capture antibodies for Phospho-Akt (Ser473 and Thr308). After blocking, lysates from tissue culture plates were added and plates were washed. Then, a solution containing the detection antibody (anti-total Akt conjugated with an electrochemiluminescent compound-MSD Sulfo-tag label) was added. The signals were detected using an MSD SECTOR Imager 6000 and are proportional to the phospho-Akt titres.
(§7) Data were processed. The percentage of inhibition was plotted against the log concentration of test compounds, and the sigmoidal log concentration-effect curve of best fit was calculated by nonlinear regression analysis. From these concentration-response curves, the IC50 values were calculated. Five concentrations were used for curve fitting.

[2] = system: Akt phosphorylated at Ser473 in PC-3 cells; experiment: Cellular assay: phosphorylation of Akt (Ser473) in PC-3 cells, MSD ELISA; assay type: cell-based; conditions: Homo sapiens, 1 h, 60 min incubation with compound, read-out: IC50 pAkt_S473
Experimental: as §3, §4, §5, §6, §7

T1 sequence (P48736 whole entry): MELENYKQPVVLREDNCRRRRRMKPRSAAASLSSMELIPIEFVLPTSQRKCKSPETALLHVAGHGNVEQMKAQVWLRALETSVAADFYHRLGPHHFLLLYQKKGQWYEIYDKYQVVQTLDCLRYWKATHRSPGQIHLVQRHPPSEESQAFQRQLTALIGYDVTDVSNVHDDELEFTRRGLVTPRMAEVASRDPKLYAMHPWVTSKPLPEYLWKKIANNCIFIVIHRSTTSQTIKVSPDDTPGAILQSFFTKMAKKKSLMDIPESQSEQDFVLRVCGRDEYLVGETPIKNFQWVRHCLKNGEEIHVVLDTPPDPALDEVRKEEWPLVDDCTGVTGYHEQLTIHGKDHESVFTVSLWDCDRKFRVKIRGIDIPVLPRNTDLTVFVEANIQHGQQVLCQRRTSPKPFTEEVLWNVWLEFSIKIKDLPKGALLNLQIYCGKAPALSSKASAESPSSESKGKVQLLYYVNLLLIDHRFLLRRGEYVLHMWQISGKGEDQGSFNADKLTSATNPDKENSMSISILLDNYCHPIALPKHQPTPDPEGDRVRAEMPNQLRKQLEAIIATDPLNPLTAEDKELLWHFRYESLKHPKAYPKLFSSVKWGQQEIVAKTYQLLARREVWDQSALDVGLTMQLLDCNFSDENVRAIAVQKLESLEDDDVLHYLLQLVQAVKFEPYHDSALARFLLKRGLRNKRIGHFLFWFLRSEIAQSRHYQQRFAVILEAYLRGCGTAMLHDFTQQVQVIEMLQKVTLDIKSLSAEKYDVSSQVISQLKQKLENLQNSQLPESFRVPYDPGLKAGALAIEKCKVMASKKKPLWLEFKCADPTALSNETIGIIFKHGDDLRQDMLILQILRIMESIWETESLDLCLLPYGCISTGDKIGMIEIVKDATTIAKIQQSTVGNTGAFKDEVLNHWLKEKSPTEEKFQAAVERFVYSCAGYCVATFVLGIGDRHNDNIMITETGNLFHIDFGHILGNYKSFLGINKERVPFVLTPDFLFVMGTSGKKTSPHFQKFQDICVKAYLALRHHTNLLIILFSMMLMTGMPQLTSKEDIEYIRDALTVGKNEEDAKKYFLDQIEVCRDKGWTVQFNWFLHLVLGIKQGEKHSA

Compound	Kd (PIK3Cγ_h) [nM]	Kd (PIK3Cδ_h) [nM]	Kd (MTOR_h) [nM]	Kd (PIK3Cβ_h) [nM]	Kd (PIK3Cα_h) [nM]	IC50 [1] [nM]	melting point [°C]	IC50 [2] [nM]
Cc1c(Cc2c(CN3CC4(C3)CS(=O)(=O)C4)nc3c(-c4cnc[nH]4)cc(N4CCOCC4)nn23)cccc1C(F)(F)F [Compound 1]	933	12	3160	1.2	162	~4	217	9
Cc1c(Cc2c(CN3CC4(CCS4(=O)=O)C3)nc3c(N)cc(N4CCOCC4)nn23)cccc1C(F)(F)F [Compound 2]	> 30200	23	21400	2.1	5490	~4	180	6
Cc1c(Cc2c(CN3CCC(S(C)(=O)=O)CC3)nc3c(N)cc(N4CCOCC4)nn23)cccc1C(F)(F)F [Compound 4]	> 30200	166	> 30200	2.3	3980	~33	188	18
Cc1c(Cc2c(CN3CCC(S(C)(=O)=O)C3)nc3c(N)cc(N4CCOCC4)nn23)cccc1C(F)(F)F (stereo not shown) [Compound 6]	> 30200	263	21900	2.4	7080	~13	159	40
Cc1c(Cc2c(CN3CC(S(C)(=O)=O)C3)nc3c(N)cc(N4CCOCC4)nn23)cccc1C(F)(F)F [Compound 8]	30900	195	15500	1.6	11500	~20	210	25
Cc1c(Cc2c(CN3CCC(CO)CC3)nc3c(N)cc(N4CCOCC4)nn23)cccc1C(F)(F)F [Compound 9]	> 30200	65	> 30200	0.6	14500	~39	215	76
Cc1c(Cc2c(CN3CCS(=O)(=O)CC3)nc3c(N)cc(N4CCOCC4)nn23)cccc1C(F)(F)F [Compound 11]	> 30200	81	11700	0.7	1860	7	214	10

More lines, now with the values ahead:

Kd (PIK3Cγ_h) [nM]	Kd (PIK3Cδ_h) [nM]	Kd (MTOR_h) [nM]	Kd (PIK3Cβ_h) [nM]	Kd (PIK3Cα_h) [nM]	IC50 [1] [nM]	melting point [°C]	IC50 [2] [nM]	Compound
4900	68	5130	0.8	5490	141	212	158	Cc1c(Cc2c(CNC(=O)[C@H]3CCCN3)nc3c(N)cc(N4CCOCC4)nn23)cccc1C(F)(F)F (stereo in doubt) [Compound 37]
6760	79	> 30200	< 1.5	813	58	171	65	Cc1c(Cc2c(CN3CCCC(CO)C3)nc3c(-c4ncc[nH]4)cc(N4CCOCC4)nn23)cccc1C(F)(F)F (stereo not shown) [Compound 17]
891	52	4370	1.6	513	54	198	50	Cc1c(Cc2c(CN3CC(O)C3)nc3c(-c4ncc[nH]4)cc(N4CCOCC4)nn23)cccc1C(F)(F)F [Compound 19]
> 30200	224	18200	1.5	6310	~74	–	87	Cc1c(Cc2c(CN3CCC4(CCS(=O)(=O)C4)C3)nc3c(N)cc(N4CCOCC4)nn23)cccc1C(F)(F)F (stereo not shown) [Compound 34]
8640	7	3220	0.2	2050	18	–	27	Cc1c(Cc2c(CNC(=O)[C@@H]3CCCN3)nc3c(N)cc(N4CCOCC4)nn23)cccc1C(F)(F)F [Compound 35]
> 30200	14	355	0.2	1000	31	–	54	Cc1c(Cc2c(CNC(=O)[C@@H]3C[C@@H](F)CN3)nc3c(N)cc(N4CCOCC4)nn23)cccc1C(F)(F)F [Compound 38]
11700	82	7390	0.3	3550	38	–	44	Cc1c(Cc2c(CNC(=O)[C@@H]3CCCN3C)nc3c(N)cc(N4CCOCC4)nn23)cccc1C(F)(F)F [Compound 39]
21400	48	6760	0.4	5370	18	–	60	Cc1c(Cc2c(CNC(=O)[C@@H]3C[C@@H](O)CN3C)nc3c(N)cc(N4CCOCC4)nn23)cccc1C(F)(F)F [Compound 41]
